{"source": "ChEMBL document CHEMBL5042510", "about": "“Structure-Guided Discovery of Aminoquinazolines as Brain-Penetrant and Selective LRRK2 Inhibitors” (J Med Chem, 2022)", "key": {"[1]": {"test": "Oral bioavailability in Wistar Han rat at 5 mg/kg by LC-MS/MS analysis", "type": "ADME, organism-based", "details": "in vivo"}, "[2]": {"test": "Cardiotoxicity in telemetered Wistar Han rat assessed as NOAEL at 30 mg/kg, po", "type": "toxicity, organism-based", "details": "in vivo"}, "[3]": {"test": "Unbound fraction in CD rat brain at 1 to 100 mg/kg, po measured after 120 mins by LC/MS/MS analysis", "type": "ADME, organism-based", "details": "in vivo, 2 h, dose 1-100 mg/kg"}, "[4]": {"test": "Oral bioavailability in Rhesus monkey at 2 mg/kg by LC-MS/MS analysis", "type": "ADME, organism-based, Macaca mulatta", "details": "in vivo"}, "[5]": {"test": "Genotoxicity in CHO-WBL cells incubated for 3 hrs in presence of liver S9 extract by invitro micronucleus test", "type": "toxicity, Cricetulus griseus", "details": "chinese hamster, s9, 3 h"}, "[6]": {"biological_target": "Mitogen-activated protein kinase 3 (Homo sapiens, UniProt P27361)", "sequence (P27361 whole entry)": "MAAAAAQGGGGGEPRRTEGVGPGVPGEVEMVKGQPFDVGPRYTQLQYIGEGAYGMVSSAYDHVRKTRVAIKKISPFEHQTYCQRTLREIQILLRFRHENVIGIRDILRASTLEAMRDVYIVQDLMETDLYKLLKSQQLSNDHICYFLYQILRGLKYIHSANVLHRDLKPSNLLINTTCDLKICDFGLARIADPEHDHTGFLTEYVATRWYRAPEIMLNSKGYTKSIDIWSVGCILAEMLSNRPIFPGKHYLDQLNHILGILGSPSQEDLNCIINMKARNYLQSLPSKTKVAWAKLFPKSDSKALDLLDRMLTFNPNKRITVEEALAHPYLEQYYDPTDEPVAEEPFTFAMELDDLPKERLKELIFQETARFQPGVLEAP", "test": "Inhibition of ERK1 (unknown origin)"}, "Substance-P receptor": {"biological_target": "Substance-P receptor (Homo sapiens, UniProt P25103)", "sequence (P25103 whole entry)": "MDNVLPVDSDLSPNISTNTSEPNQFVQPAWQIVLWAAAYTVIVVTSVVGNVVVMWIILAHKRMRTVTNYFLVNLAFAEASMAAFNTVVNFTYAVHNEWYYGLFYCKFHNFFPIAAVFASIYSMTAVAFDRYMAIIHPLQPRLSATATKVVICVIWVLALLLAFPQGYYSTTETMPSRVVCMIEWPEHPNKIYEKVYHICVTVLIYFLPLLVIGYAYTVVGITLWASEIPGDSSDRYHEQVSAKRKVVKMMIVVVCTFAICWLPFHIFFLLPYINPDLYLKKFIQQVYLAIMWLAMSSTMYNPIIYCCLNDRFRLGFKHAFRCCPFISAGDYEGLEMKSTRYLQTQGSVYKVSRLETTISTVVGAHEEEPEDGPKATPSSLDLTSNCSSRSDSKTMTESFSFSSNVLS", "test": "Inhibition of tachykinin NK1 receptor (unknown origin)"}, "[7]": {"test": "MRT in Beagle dog at 1 mg/kg, iv by LC-MS/MS analysis", "type": "ADME, organism-based, Canis lupus familiaris", "details": "in vivo"}, "Salmonella typhimurium [8]": {"test_system": "Salmonella typhimurium", "test": "Mutagenicity in Salmonella typhimurium TA1535 at 30 to 5000 ug incubated for 48 hrs in presence of liver S9 fraction by AMES test", "type": "toxicity, organism-based, Salmonella enterica subsp. enterica serovar Typhimurium", "details": "s9, 48 h, dose 30-5000 µg"}, "[9]": {"test": "Toxicity in rat assessed as clinical signs of toxicity at 40 to 400 mg/kg, po qd administered for 4 days", "type": "organism-based", "details": "in vivo, 96 h, dose 40-400 mg/kg, time 4 day"}, "[10]": {"test": "Unbound brain-to-plasma concentration ratio in CD rat 1 to 100 mg/kg, po measured after 120 mins by LC/MS/MS analysis", "type": "ADME, organism-based", "details": "brain and plasma (unbound), dose 1-100 mg/kg, read-out: K(p,uu,brain)"}, "Salmonella typhimurium [11]": {"test_system": "Salmonella typhimurium", "test": "Mutagenicity in Salmonella typhimurium TA98 at 30 to 5000 ug incubated for 48 hrs in presence of liver S9 fraction by AMES test", "type": "toxicity, organism-based, Salmonella enterica subsp. enterica serovar Typhimurium", "details": "s9, 48 h, dose 30-5000 µg"}, "[12]": {"test": "Intrinsic clearance in Wistar Han rat at 2 mg/kg, iv by LC-MS/MS analysis", "type": "ADME, organism-based", "details": "in vivo"}, "[13]": {"test": "MRT in Wistar Han rat at 2 mg/kg, iv by LC-MS/MS analysis", "type": "ADME, organism-based", "details": "in vivo"}, "[14]": {"test": "Dissociation constant, pKa of the compound", "type": "physicochemical"}, "[15]": {"biological_target": "Leucine-rich repeat serine/threonine-protein kinase 2 (Homo sapiens) (UniProt Q5S007)", "sequence (Q5S007 whole entry)": "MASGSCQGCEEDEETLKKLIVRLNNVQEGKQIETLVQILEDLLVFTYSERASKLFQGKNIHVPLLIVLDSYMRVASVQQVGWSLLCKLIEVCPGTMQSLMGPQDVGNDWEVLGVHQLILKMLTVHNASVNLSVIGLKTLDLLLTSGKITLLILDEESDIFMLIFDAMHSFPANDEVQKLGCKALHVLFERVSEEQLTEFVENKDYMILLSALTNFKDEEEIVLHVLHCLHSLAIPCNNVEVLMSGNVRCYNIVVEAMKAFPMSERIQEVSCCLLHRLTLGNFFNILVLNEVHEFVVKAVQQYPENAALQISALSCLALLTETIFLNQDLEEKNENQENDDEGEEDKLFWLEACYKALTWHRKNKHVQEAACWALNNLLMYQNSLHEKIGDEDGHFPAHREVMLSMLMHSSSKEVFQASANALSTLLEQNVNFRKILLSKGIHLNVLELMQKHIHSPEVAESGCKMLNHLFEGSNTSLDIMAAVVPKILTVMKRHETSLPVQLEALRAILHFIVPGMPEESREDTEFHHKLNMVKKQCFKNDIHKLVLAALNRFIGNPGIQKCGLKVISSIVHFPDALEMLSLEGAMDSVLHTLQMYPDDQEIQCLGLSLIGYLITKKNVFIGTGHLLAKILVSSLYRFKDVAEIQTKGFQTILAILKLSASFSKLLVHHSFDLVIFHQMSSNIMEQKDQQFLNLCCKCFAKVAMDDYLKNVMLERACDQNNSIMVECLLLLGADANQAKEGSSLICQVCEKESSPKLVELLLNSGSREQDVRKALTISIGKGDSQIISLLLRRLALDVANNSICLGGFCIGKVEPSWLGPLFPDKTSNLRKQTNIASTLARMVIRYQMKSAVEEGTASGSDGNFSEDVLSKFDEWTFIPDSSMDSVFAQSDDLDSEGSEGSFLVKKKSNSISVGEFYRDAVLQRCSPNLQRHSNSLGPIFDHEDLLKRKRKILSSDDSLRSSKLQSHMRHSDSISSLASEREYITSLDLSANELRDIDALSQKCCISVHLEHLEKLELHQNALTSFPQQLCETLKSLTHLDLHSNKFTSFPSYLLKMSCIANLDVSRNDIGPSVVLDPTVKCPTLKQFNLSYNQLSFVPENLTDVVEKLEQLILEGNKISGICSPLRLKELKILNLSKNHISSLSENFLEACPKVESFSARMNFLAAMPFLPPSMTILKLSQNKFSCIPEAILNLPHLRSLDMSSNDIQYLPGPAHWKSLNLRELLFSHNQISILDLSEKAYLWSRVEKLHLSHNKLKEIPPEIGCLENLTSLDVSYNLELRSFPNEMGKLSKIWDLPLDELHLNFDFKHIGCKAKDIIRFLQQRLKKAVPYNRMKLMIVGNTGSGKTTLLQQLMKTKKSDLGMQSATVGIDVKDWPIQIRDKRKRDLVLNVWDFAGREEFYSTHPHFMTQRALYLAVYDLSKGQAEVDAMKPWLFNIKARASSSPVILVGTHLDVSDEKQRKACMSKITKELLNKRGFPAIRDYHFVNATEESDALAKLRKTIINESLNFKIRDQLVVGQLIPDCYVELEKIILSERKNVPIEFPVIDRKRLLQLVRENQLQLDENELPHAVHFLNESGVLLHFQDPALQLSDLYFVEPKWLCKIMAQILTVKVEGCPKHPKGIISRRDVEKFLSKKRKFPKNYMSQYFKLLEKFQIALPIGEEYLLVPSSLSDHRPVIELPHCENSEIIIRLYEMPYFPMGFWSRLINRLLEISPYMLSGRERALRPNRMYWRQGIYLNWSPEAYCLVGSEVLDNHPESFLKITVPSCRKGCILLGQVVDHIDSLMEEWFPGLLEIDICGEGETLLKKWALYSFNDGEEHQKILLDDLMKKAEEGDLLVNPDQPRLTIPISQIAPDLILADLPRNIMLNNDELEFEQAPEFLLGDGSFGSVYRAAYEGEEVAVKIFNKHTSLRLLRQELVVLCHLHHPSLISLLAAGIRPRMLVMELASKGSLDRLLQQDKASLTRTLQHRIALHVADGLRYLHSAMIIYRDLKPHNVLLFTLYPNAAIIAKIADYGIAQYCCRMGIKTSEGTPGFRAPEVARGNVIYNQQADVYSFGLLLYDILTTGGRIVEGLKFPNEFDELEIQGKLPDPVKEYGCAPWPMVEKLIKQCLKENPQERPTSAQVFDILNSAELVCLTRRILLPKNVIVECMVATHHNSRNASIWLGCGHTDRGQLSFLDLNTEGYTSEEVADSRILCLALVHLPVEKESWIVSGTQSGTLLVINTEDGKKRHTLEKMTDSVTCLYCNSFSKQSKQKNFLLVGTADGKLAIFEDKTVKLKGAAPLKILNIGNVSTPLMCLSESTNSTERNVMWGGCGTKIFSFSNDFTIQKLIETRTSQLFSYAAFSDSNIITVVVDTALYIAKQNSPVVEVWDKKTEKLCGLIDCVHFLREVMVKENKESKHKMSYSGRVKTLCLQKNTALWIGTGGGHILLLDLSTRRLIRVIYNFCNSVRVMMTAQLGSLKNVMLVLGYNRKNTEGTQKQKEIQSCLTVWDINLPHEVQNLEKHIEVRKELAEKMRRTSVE", "test": "Ex vivo inhibition of LRRK2 in human PBMC assessed as unbound concentration required for reduction in LRRK2 phosphorylation at Ser935 residue incubated for 90 mins by MSD assay", "type": "cell-based"}, "[16]": {"test": "Unbound brain-to-plasma concentration ratio in rat at 2.5 uM incubated for 4 hrs by equilibrium dialysis method", "type": "ADME, cell-free", "details": "brain and plasma (unbound), read-out: K(p,uu,brain)"}, "UGT1A6": {"test_system": "UGT1A6", "test": "Toxicity in rat assessed as fold increase in UGT1A6 transcriptional activity in liver at 75 mg/kg, po bid administered for 4 days relative to control", "type": "organism-based", "details": "time 4 day, read-out: FC"}, "[17]": {"test": "Intrinsic clearance in Beagle dog at 1 mg/kg, iv by LC-MS/MS analysis", "type": "ADME, organism-based, Canis lupus familiaris", "details": "in vivo"}, "[18]": {"biological_target": "Leucine-rich repeat serine/threonine-protein kinase 2 (Homo sapiens, UniProt Q5S007, G2019S)", "sequence (Q5S007 whole entry G2019S, the tested form may be a part)": "as the sequence (Q5S007 whole entry) above, with G2019S counted along it", "test": "Inhibition of recombinant N-terminal GST-fused LRRK2 […] mutant (970 to 2527 residues) (unknown origin) preincubated with enzyme for 15 mins followed by fluorescein-labeled LRRKtide peptide substrate and ATP addition for 90 mins by TR-FRET assay"}, "[19]": {"test": "Cardiotoxicity in guinea pig assessed as increase in QTc level at 157X unbound EM infused via iv consecutively for 20 mins", "type": "toxicity, organism-based, Cavia porcellus", "details": "in vivo"}, "[20]": {"test": "Toxicity in rat assessed as fold increase in serum ALT levels at 150 mg/kg, po qd administered for 4 days", "type": "organism-based", "details": "in vivo, 96 h, time 4 day"}, "[21]": {"test": "Unbound fraction in CD rat plasma at 1 to 100 mg/kg, po measured after 120 mins by LC/MS/MS analysis", "type": "ADME, organism-based", "details": "in vivo, 2 h, dose 1-100 mg/kg"}, "rat Mdr1a (P-gp)": {"test_system": "rat Mdr1a (P-gp)", "test": "Apparent permeability from apical to basolateral side in rat Mdr1a-transfected pig LLC-PK1 cells at 0.1 to 1 uM measured after 3 hrs by LC/MS/MS analysis", "type": "ADME, cell-based, Sus scrofa", "details": "dose 0.1-1 µM"}, "[22]": {"test": "Toxicity in rat assessed as reduction in weight gain at 150 mg/kg, po qd administered for 4 days", "type": "organism-based", "details": "in vivo, 96 h, time 4 day"}, "GSTA5": {"test_system": "GSTA5", "test": "Toxicity in rat assessed as fold increase in GSTA5 transcriptional activity in liver at 75 mg/kg, po bid administered for 4 days relative to control", "type": "organism-based", "details": "time 4 day, read-out: FC"}, "[23]": {"test": "Toxicity in rat assessed as body weight loss at 400 mg/kg, po qd administered for 4 days", "type": "organism-based", "details": "in vivo, 96 h, time 4 day"}, "[24]": {"test": "Cardiotoxicity in telemetered Wistar Han rat assessed as elevation of diastolic blood pressure at 100 mg/kg, po", "type": "toxicity, organism-based", "details": "in vivo"}, "[25]": {"test": "Toxicity in rat assessed as fold increase in serum ALP levels at 150 mg/kg, po qd administered for 4 days", "type": "organism-based", "details": "in vivo, 96 h, time 4 day"}, "CYP1A1": {"test_system": "CYP1A1", "test": "Toxicity in rat assessed as fold induction of CYP1A1 transcriptional activity in liver at 10 to 75 mg/kg, po bid administered for 4 days relative to control", "type": "organism-based", "details": "dose 10-75 mg/kg, time 4 day, read-out: FC"}, "[26]": {"test": "In vivo inhibition of LRRK2 in CD rat assessed as reduction in phosphorylation at Ser935 residue in striatum at 100 mg/kg, po measured after 2 hrs by MSD assay", "type": "functional"}, "[27]": {"test": "Oral bioavailability in Beagle dog at 0.5 mg/kg by LC-MS/MS analysis", "type": "ADME, organism-based, Canis lupus familiaris", "details": "in vivo"}, "[28]": {"test": "Cardiotoxicity in telemetered Wistar Han rat assessed as elevation of systolic blood pressure at 100 mg/kg, po", "type": "toxicity, organism-based", "details": "in vivo"}, "[29]": {"test": "Intrinsic clearance in Rhesus monkey at 3 mg/kg, iv by LC-MS/MS analysis", "type": "ADME, organism-based, Macaca mulatta", "details": "in vivo"}, "[30]": {"test": "MRT in Rhesus monkey at 3 mg/kg, iv by LC-MS/MS analysis", "type": "ADME, organism-based, Macaca mulatta", "details": "in vivo"}, "[31]": {"test": "Toxicity in rat assessed as elevation of PXR gene expression at 10 to 75 mg/kg, po bid administered for 4 days", "type": "organism-based", "details": "in vivo, 96 h, dose 10-75 mg/kg, time 4 day"}, "[32]": {"test": "Toxicity in rat bone marrow at 40 to 400 mg/kg, po qd administered for 4 days by micronucleus assay", "type": "organism-based", "details": "in vivo, 96 h, dose 40-400 mg/kg, time 4 day"}, "[33]": {"test": "In vivo inhibition of LRRK2 in CD rat assessed as reduction in phosphorylation at Ser935 residue in striatum at 1 mg/kg, po measured after 2 hrs by MSD assay", "type": "functional"}, "[34]": {"test": "AUC in rat at 10 to 400 mg/kg, po qd for 4 days by LC/MS/MS analysis", "type": "ADME, organism-based", "design": "time 4 day", "details": "in vivo, 96 h, dose 10-400 mg/kg"}, "[35]": {"test": "Unbound brain-to-plasma concentration ratio in rat at 10 mg/kg, po qd for 4 days by LC/MS/MS analysis", "type": "ADME, organism-based", "details": "brain and plasma (unbound), time 4 day, read-out: K(p,uu,brain)"}, "[36]": {"test": "Total plasma clearance in Rhesus monkey at 3 mg/kg, iv by LC-MS/MS analysis", "type": "ADME, organism-based, Macaca mulatta"}}, "data": [{"smiles": "O[C@H]1COC[C@H]1N1CC[C@@H](c2cc3nc(Nc4cnn([C@@H]5CC5(F)F)c4Cl)ncc3cc2Cl)[C@H](F)C1", "values": [{"measurement": "bioavailability", "setting": "[1]", "result": 83, "unit": "%"}, {"measurement": "Activity", "setting": "[2]", "result": "Non-Toxic"}, {"measurement": "Cp(f)", "setting": "[3]", "result": 3.7, "unit": "nM"}, {"measurement": "bioavailability", "setting": "[4]", "result": 18, "unit": "%"}, {"measurement": "Activity", "setting": "[5]", "result": "Non-Toxic"}, {"measurement": "IC50", "setting": "[6]", "result": 1.8, "unit": "µM"}, {"measurement": "IC50", "setting": "Substance-P receptor", "result": 5.7, "unit": "µM"}, {"measurement": "MRT", "setting": "[7]", "result": 24, "unit": "h"}, {"measurement": "Activity", "setting": "Salmonella typhimurium [8]", "result": "Non-Toxic"}, {"measurement": "Activity", "setting": "[9]", "result": "Non-Toxic"}, {"measurement": "Kp uu at 2 h", "setting": "[10]", "result": 0.36}, {"measurement": "Activity", "setting": "Salmonella typhimurium [11]", "result": "Non-Toxic"}, {"measurement": "CL", "setting": "[12]", "result": 1278, "unit": "mL/min/kg"}, {"measurement": "MRT", "setting": "[13]", "result": 3.9, "unit": "h"}, {"measurement": "pKa", "setting": "[14]", "result": 5.65}, {"measurement": "fIC50", "setting": "[15]", "result": 1.9, "unit": "nM"}, {"measurement": "Kp uu at 4 h, 2.5 µM", "setting": "[16]", "result": 0.36}, {"measurement": "fold induction at 96 h", "setting": "UGT1A6", "result": 2.5}, {"measurement": "CL", "setting": "[17]", "result": 445, "unit": "mL/min/kg"}, {"measurement": "IC50", "setting": "[18]", "result": "< 0.0006", "unit": "µM"}, {"measurement": "Activity", "setting": "[19]", "result": 2, "unit": "%"}, {"measurement": "fold change (FC)", "setting": "[20]", "result": 2}, {"measurement": "Cp(f)", "setting": "[21]", "result": 10.14, "unit": "nM"}, {"measurement": "Papp A→B at 3 h, up to 1 µM", "setting": "rat Mdr1a (P-gp)", "result": 30, "unit": "×10⁻⁶ cm/s"}, {"measurement": "Activity", "setting": "[22]", "result": "Toxic"}, {"measurement": "fold induction at 96 h", "setting": "GSTA5", "result": 5}, {"measurement": "Activity", "setting": "[23]", "result": "Toxic"}, {"measurement": "Activity", "setting": "[24]", "result": "Toxic"}, {"measurement": "fold change (FC)", "setting": "[25]", "result": 2}, {"measurement": "fold induction at 96 h", "setting": "CYP1A1", "result": 3}, {"measurement": "inhibition in vivo at 100 mg/kg", "setting": "[26]", "result": 97, "unit": "%"}, {"measurement": "bioavailability", "setting": "[27]", "result": 79, "unit": "%"}, {"measurement": "Activity", "setting": "[28]", "result": "Toxic"}, {"measurement": "CL", "setting": "[29]", "result": 1295, "unit": "mL/min/kg"}, {"measurement": "MRT", "setting": "[30]", "result": 5.2, "unit": "h"}, {"measurement": "Activity", "setting": "[31]", "result": "Non-Toxic"}, {"measurement": "Activity", "setting": "[32]", "result": "Non-Toxic"}, {"measurement": "inhibition in vivo at 1 mg/kg", "setting": "[33]", "result": 7, "unit": "%"}, {"measurement": "AUC", "setting": "[34]", "result": 99, "unit": "µM·h"}, {"measurement": "Kp uu at 96 h", "setting": "[35]", "result": 0.67}, {"measurement": "clearance", "setting": "[36]", "result": 21, "unit": "mL/min/kg"}]}]}
